Reference: patent US20250032581A1, “COMPOSITIONS AND ARTICLES COMPRISING AN ADNF POLYPEPTIDE” (RAMOT AT TEL-AVIV UNIVERSITY LTD., priority 2021, published 2025)

How the values were obtained:
Tyr mice = test: CatWalk gait analysis; type: in vivo, mouse
Experimental: Animals—Animals were housed under a 12-hour light/dark cycle, with food and water ad-libitum. Mouse pups were subcutaneously administrated with NAP [having an amino acid sequence NAPVSIPQ (SEQ ID NO: 2), 25 μg NAP/1 ml saline] as described (8, 12). At 21 days of age mice were administered daily intranasal NAP in vehicle solution (“DD”—7.5 mg/ml of NaCl, 1.7 mg/ml of citric acid, 3 mg/ml of disodium phosphate dihydrate, and 0.2 mg/ml of 50% benzalkonium chloride solution) (0.5 μg NAP/5p1 DD) (8, 9, 12, and U.S. Pat. No. 10,912,819 to Gozes). These mice continued to behavioral analysis as described hereinbelow. The noninvasive intranasal route was chosen as these experiments required daily handling and administration. Age (weeks) of mice during behavioral experiments (mean±SEM) was as follows: Catwalk—9.23±0.15, grooming—10±0.15, social approach—10.5±0.12, odor-discrimination—12.12±0.13, hanging-wire—13±0.14, hotplate—13.18±0.13. Group size was determined following previous experiments (12). Pups were randomly allocated to either the NAP or DD group according to sex and genotype. All procedures involving animals were conducted under the supervision and approval of the institutional animal care and use committee of Tel Aviv University and the Israeli Ministry of Health.
Catwalk—Was performed as previously described (12).
Briefly, for ear twitch reflex, a cotton tip was gently brushed against the tip of the ear three times, between postnatal days 7-15 or until the pup responded correctly for two consecutive days. For air righting reflex, the pup was held up-side down and released ˜10.5 cm above the cage, containing 5 cm of shavings. The test was performed between postnatal days 8-21 or until the pup landed on the shavings with all four paws, for two consecutive days. For surface righting reflex, pups were placed on their backs on a level surface, the test was performed between postnatal days 1-13 until the pups was able to right itself with all four paws on the surface in under a second for two consecutive days. For eye opening, mice were observed daily until both eyes were open (eyelids separated completely). For auditory startle, the pup was placed on a level surface and the experimenter clapped loudly twice until a visible startle response was evident for 2 consecutive days. The test was performed between days 7-18. For cliff aversion, pups were placed on the edge of a small box (approx. 4 cm in height) with both paws protruding over the edge of the box. Pups were allowed 30 sec to avoid the cliff and move themselves backwards. Test was performed between day 1-14 until the pup avoided the cliff in under 30 sec for two consecutive days^9. For the rooting reflex, a cotton tip was gently brushed against the sides of the pup's mouth until the pup moved its head to the direction of the stroke. Both sides were tested twice. […] All tests were conducted between 10 AM-4 PM. For the first 5 postnatal days, each pup was put under a single 60-watt bulb during testing to assure the pups' warmth. • Novel object recognition: Briefly, the open field test was used for the first day of habituation since both tests are conducted in the same arena. The following day animals underwent another habituation to the arena (5 mins). As described, the test included two consecutive days of habituation and the experimental days which consisted of the three phases. […]

[1] = system: mice with the ASD-linked InsG3680 mutation (SHANK3); test: Social recognition test in the SHANK3 mouse model; type: in vivo; conditions: intranasal NAP
Experimental: To this end, mice with the ASD-linked InsG3680 mutation were used. Two behavioral assessments were performed on make mice: • 1) Open field behavior attesting to anxiety and depression (Open field behavioral assessment technology was previously described, e.g.); and • 2) Social recognition behavior, related to autistic traits (the social recognition test was previously described, e.g..
In the social recognition test, the results measured both time exploring and frequency exploring the mouse or cup, either directly or in the chamber where the mouse or cup only are present (FIG. 13).

[2] = system: Shank3-Adnp-actin interactions; test: Actin co-immunoprecipitations from mouse brain extracts
Text: De novo heterozygous mutations in ADNP reproduced the autistic ADNP syndrome. ADNP mutations impair microtubule (MT) function, essential for synaptic activity. The ADNP MT-associating fragment NAPVSIPQ (NAP) (SEQ ID NO 2) contains an MT end-binding protein interacting domain, SxIP (mimicking the active-peptide, SKIP, SEQ ID NO 21). The inventors hypothesized that not all ADNP mutations are similarly deleterious and that the NAPV portion of NAPVSIPQ is biologically active. Using the eukaryotic linear motif (ELM) resource, the inventors identified a Src homology 3 (SH3) domain-ligand association site in NAP responsible for controlling signaling pathways regulating the cytoskeleton, namely NAPVSIP (SEQ ID NO: 2). Altogether, the inventors mapped multiple SH3-binding sites in ADNP. […] Site-directed-mutagenesis, abolishing the p.Lys408Valfs*31 SH3-binding motif, produced MT toxicity. […] Lastly, SH3 and multiple ankyrin repeat domains protein 3 (SHANK3), a major autism gene product, interact with the cytoskeleton through an actin-binding motif to modify behavior.

[3] = adult patients; cited from earlier work

## CC[C@H](C)[C@H](NC(=O)[C@H](CO)NC(=O)[C@@H](NC(=O)[C@@H]1CCCN1C(=O)[C@H](C)NC(=O)[C@@H](N)CC(N)=O)C(C)C)C(=O)N1CCC[C@H]1C(=O)N[C@@H](CCC(N)=O)C(=O)O [NAP, NAPVSIPQ]
Tyr mice; WT mice, data not shown
  gait: No major NAP effect was observed in WT mice
Tyr mice; female Tyr mice
  gait: intensity parameters: significant NAP correction
  gait: swing speed and swing duration: ameliorated by NAP
Tyr mice; male Tyr mice
  gait: front base of support: NAP correcting this phenotype in males
Tyr mice; male Tyr mice, daily intranasal NAP
  gait: print length and area: significant NAP recovery
[1]
  social recognition: mouse vs. cup exploration: normalization of behavior in the NAP-treated SHANK3 mouse model
[2]
  Shank3-Adnp-actin interactions: NAP-mediated normalization of Shank3-Adnp-actin interactions
[3]
  efficacy in clinical studies: enhancement of cognitive function and functional activities of daily living
